Patent publication US20190255175A1, “ACTIVATION OF TRPA1+ NOCICEPTORS IN THE VAGUS NERVE ATTENUATES SYSTEMIC INFLAMMATION” (THE FEINSTEIN INSTITUTE FOR MEDICAL RESEARCH, priority 2018, published 2019)

What was measured:
[1] = system: nodose ganglion neurons; assay: Whole-cell patch clamp recordings of nodose ganglion neurons; assay type: cell-based, mice
Description: Whole-cell patch clamp recordings were made with glass pipettes pulled on a P-97 electrode puller (Sutter Instruments, Novato, Calif.). The resistance of the pipettes was 2-4 MΩ when filled with an intracellular solution (in mM: CsCl 140, HEPES 10, EGTA 5, Mg-ATP 2, NaGTP 0.3, MgCl2 2, Phosphocreatine 10, pH 7.25 adjusted with CsOH). Cells were superfused at a rate of 2 ml/min with an external bath solution containing the following (in mM): 150 NaCl, 2.5 KCl, 10 HEPES, 10 D-glucose, 2 CaCl2, and 1 MgCl2, pH 7.3-7.4. Experiments were performed at room temperature (22-24° C.). Currents from neurons were monitored with an Multiclamp 700B amplifier (Molecular Devices, Union City, Calif.), acquired through Digidata 1550B (Molecular Devices) onto a computer using pClamp 11 software (Molecular Devices). Data were analyzed using Clampfit 11 (Molecular Devices). All chemicals used for electrophysiological recordings were purchased from Sigma. All drugs and solutions were made fresh from drug stock solutions.
Using patch clamp recordings, IL-1β responses were recorded in nodose ganglion neurons. Application of IL-1β (20 μg/ml) induced calcium influx as indicated by increase of fluorescence in 6 out of 332 (1.8%) sensory nodose ganglion neurons from VGlut2-GCaMP3 mice. Next, whole-cell patch clamp recordings were carried out on the same neurons that responded to IL-1β in calcium influx analysis. When the membrane potential was held at −65 mV, bath application of IL-1β (20 μg/ml) produced slow inward currents in 4 out of 332 (1.2%) nodose neurons. The amplitude of IL-1β induced currents are 108±23 pA (n=4). […] In current-clamp mode, IL-1β reduced action potential threshold from −25±2 mV to −31±3 mV (n=4). […] To further determine the potential interaction of TRPA1 with IL-1β, nodose ganglion neurons from TRPA1 KO mice were examined in a culture system. […] IL1R1 co-localizes with TRPA1 on nodose ganglion neurons, as was determined using immunohistochemical staining.

[2] = IL-1β induced inflammation: serum and spleen cytokines; assay type: in vivo; conditions: TRPA1 KO mice; after IL-1β administration; 3 hours
Description: Mice were injected with 3.2 μg/kg IL-1β ip or saline. Three hours later the mice were euthanized, and blood, spleen, and two brain regions collected. Blood was collected by cardiac puncture. To obtain serum from these samples, blood was allowed to clot for approximately 45 min to 1 h. The blood was then spun at 5,000 rpm for 10 min and 10,000 For 2 min. Supernatants (serum) were collected and stored at −20° C. prior to use. The spleen was homogenized using a bullet blender homogenizer (Next Advance, Averill Park, N.Y., USA) and the recommended bead homogenization kit and protocol in a 4° C. walk-in refrigerator. The homogenized sample was then spun down at 15,000 rpm for 10 min with the supernatants collected and stored at −20° C. Splenic protein level was measured using the Bradford assay. IL-6, IL-1β, KC/Gro (CXCL1), and IL-1β for both serum and spleen were measured on a custom mouse inflammatory electrochemiluminescent kit (Meso Scale Discovery, Gaithersburg, Md., USA) according to manufacturer's recommendations. The brain stem region was collected on ice, using a binocular dissection microscope and placed in the same tube. Brain regions were snap frozen on dry ice and transferred to storage at −80° C.
The serum and splenic tissue of these mice were then analyzed for known downstream signaling molecules of IL-1β, IL-6, IL-1β and KC/GRO (CXCL1).

In the case of “IL-1β: interleukin 1β; recombinant human IL-1β for nerve recordings, murine (rmIL-1β) for thermoregulation”, the “Neurons with slow inward currents” value ([1]; IL-1β 20 μg/ml bath application, held at −65 mV, 4 out of 332 neurons) is reported as 1.2%, the “Amplitude of IL-1β induced currents” value ([1]; IL-1β 20 μg/ml, −65 mV, n=4) is reported as 108±23 pA and the “Action potential threshold after IL-1β” value ([1]; current-clamp mode, reduced from −25±2 mV, n=4) is reported as −31±3 mV. For the same substance, the “IL-6, IL-1β and KC/GRO (CXCL1) in serum and spleen” value [2] was “further increases”.
